Data as given in patent US11921105B2, “Method for identifying positive allosteric modulators for odorant receptors” (FIRMENICH SA, priority 2017, dated 2024).

Experiments:
[1] = target: T1, OR5AN1 olfactory receptor (Homo sapiens, UniProt Q8NGI8); experiment: OR5AN1 dose-response of musk agonist with and without modulator, and of candidate alone (EC50 shift, span); assay type: cell-based
T1 construct: FLAG (N); Rho (first 20 aa of bovine rhodopsin) (N); expressed in transfected cells
T1 sequence (Q8NGI8 1-311): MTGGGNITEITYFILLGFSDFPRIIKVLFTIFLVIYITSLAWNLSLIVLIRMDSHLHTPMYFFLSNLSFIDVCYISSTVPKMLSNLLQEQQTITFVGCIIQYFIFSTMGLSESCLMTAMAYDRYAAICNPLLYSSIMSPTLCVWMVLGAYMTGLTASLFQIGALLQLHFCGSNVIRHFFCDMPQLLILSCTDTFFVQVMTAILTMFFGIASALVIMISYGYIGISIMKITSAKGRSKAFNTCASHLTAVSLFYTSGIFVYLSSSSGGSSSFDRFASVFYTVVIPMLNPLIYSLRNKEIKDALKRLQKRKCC
Protocol: 15 candidates, marked as “enhancement” in Table 2 were identified. Strikingly, 80% of these putative enhancers (12/15) belonged to the same class of chemicals: unsaturated aliphatic aldehydes. Next, two parallel dose-response experiments to confirm the true enhancement properties of the potential candidates were performed. First, a dose-response of each individual candidate was performed to determine if it was an agonist by itself. Second, a MUSCENONE® dose-response curve in the presence and absence of a 250 μM concentration of the putative modulator was assessed for EC50 shifts.
Dose response curves to MUSCENONE® were obtained in the presence of 250 μM of each compound and compared to a dose-response curve of MUSCENONE® alone. The resulting enhancement was quantified by means of EC50-fold shift (potency increase) and the efficacy span ratio (efficacy increase).
The EC50-fold shift was obtained by […]. The span ratio was obtained by dividing the span of MUSCENONE®+compound by the reference span of MUSCENONE® alone. Specifically, diverse aliphatic α-β mono- or poly-unsaturated molecules have been compared.

[2] = target: T2, Olfr1440 (Mus musculus, UniProt Q8VFV4); experiment: Olfr1440 MUSCENONE®-induced activation in the presence of enhancer (control); assay type: cell-based; details: FIG. 5
T2 construct: expressed in transfected cells
T2 sequence (Q8VFV4 1-315): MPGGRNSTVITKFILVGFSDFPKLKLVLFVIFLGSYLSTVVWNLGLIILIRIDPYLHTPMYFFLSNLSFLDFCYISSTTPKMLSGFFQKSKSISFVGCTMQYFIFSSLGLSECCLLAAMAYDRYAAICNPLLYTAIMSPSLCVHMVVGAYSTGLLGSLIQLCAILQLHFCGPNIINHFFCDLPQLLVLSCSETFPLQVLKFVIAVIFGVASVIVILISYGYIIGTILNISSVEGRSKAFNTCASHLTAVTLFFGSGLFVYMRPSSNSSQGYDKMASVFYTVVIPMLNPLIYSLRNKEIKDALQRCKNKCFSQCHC
Protocol: Furthermore and as a control, a similar experiment was performed on the mouse MUSCENONE® responsive odorant receptor Olfr1440, the ortholog of OR5AN1.

[3] = tested on: human panelists; experiment: Human MUSCENONE® odor detection threshold (ODT), forced-choice triangle tests with background odor; assay type: in vivo; details: background compound at 0.1%; 2/3 correct responses
Protocol: Sensitivity of human individuals to MUSCENONE® was evaluated by performing an odor detection threshold (ODT) test. The ODT test consisted of identifying the concentration for which 50%, preferably 66%, of the panelists are able to determine which of three containers contains the target compound MUSCENONE® in a forced-choice triangle tests. Two tests were performed to calculate the ODT in mixtures containing MUSCENONE® plus a perceivable background odor of chemically similar molecules a) the enhancer tridecylenic aldehyde and b) the non-enhancing volatile compound, nonanal.
27 panelists were given a series of triangle tests with increasing concentration of MUSCENONE® in the presence of nonanal at a concentration of 0.1%. Within each triangle test, the three samples contained nonanal at 0.1% and one sample also contained MUSCENONE®. In each triangle test, the panelists were asked to identify the one sample that was different from the other two samples. The ODT was calculated by fitting a non-linear regression model onto the data and calculating the MUSCENONE® concentration at which the proportion of correct responses was equal to 2/3 (66%, the midpoint between chance rate 1/3 and all correct answers 1). […]

CCCCCCCCCC/C=C/C=O [TDA, tridecylenic aldehyde]
activation of OR5AN1 by the compound by itself ([1]; compound alone): did not activate
activation as % of the MUSCENONE® activation window ([1]; compound alone, above approximately 100 μM): less than 8%
maximal activation level (span) of MUSCENONE® ([1]; enhancer at 250 μM): increased span
enhancement of Olfr1440 MUSCENONE®-induced activity [2]: did not enhance
MUSCENONE® ODT value when mixed with the compound [3]: 0.09%
